Reference: ChEMBL document CHEMBL1144200, “Discovery and biological evaluation of benzo[a]carbazole-based small molecule agonists of the thrombopoietin (Tpo) receptor” (Bioorg Med Chem Lett, 2008)

Columns and labels:
[1] = biological target: T1, Thrombopoietin receptor (Homo sapiens, UniProt P40238); test: Agonist activity at human thrombopoietin receptor in Ba/F3 cells assessed as activation of Stat5 response element-driven reporter gene expression; assay type: functional, cell-based, BaF3
T1 sequence (P40238 whole entry): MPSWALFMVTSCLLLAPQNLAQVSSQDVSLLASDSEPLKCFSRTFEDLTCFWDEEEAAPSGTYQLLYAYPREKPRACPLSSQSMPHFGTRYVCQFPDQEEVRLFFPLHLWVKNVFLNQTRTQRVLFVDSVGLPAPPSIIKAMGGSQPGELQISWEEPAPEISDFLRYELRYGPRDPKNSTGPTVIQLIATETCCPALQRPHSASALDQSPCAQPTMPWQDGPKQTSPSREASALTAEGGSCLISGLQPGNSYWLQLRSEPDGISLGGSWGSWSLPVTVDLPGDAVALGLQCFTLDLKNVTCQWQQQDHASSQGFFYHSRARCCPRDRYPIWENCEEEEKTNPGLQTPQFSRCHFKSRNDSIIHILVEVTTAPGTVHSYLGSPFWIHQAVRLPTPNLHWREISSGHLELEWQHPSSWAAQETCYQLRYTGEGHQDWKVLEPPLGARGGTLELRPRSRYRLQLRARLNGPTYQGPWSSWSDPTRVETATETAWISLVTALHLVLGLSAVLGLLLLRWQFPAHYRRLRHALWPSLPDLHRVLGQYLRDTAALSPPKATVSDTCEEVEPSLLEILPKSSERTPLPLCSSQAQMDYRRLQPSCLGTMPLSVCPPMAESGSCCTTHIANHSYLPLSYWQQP

[2] = biological target: T2, Thrombopoietin receptor (Homo sapiens) (UniProt P40238); test: Agonist activity at human thrombopoietin receptor in Ba/F3 cells assessed as activation of Stat5 response element-driven reporter gene expression relative to 30 ng/mL thrombopoietin; assay type: functional, cell-based; conditions: BaF3
T2 sequence (whole entry): T1 sequence (P40238 whole entry)

[3] = Bioavailability in BALB/c mouse at 20 mg/kg, po; assay type: ADME, organism-based; conditions: in vivo
[4] = Cmax in BALB/c mouse at 20 mg/kg, po; assay type: ADME, organism-based; design: dose 20 mg/kg, route oral; conditions: in vivo
[5] = Half life in BALB/c mouse at 20 mg/kg, po; assay type: ADME, organism-based; design: dose 20 mg/kg, route oral; conditions: in vivo

EC50 [1] [µM]	Efficacy [2] [%]	bioavailability [3] [%]	Cmax [4] [µM]	half-life [5] [h]	Structure (SMILES)
0.452	132	–	–	–	COCc1ccc(-c2ccc3c4c([nH]c3c2)-c2cc(O)c(C(=O)O)cc2CC4)cc1
0.109	154	–	–	–	Cc1ccc(-c2ccc3c4c([nH]c3c2)-c2cc(O)c(C(=O)O)cc2CC4)cc1
> 30	–	–	–	–	OCc1cc2ccc3c4ccccc4[nH]c3c2cc1O
0.232	30	–	–	–	Cc1cccc(C)c1-c1ccc2c3c([nH]c2c1)-c1cc(O)c(C(=O)O)cc1CC3
0.041	129	–	–	–	CCCOc1ccc(-c2ccc3c4c([nH]c3c2)-c2cc(O)c(C(=O)O)cc2CC4)cc1
> 30	–	–	–	–	O=C(O)c1cc2c(cc1O)-c1[nH]c3cc(C4CCCCC4)ccc3c1CC2
1.3	11	–	–	–	COC(=O)c1cc2ccc3c4ccccc4[nH]c3c2cc1O
> 30	–	–	–	–	N#Cc1ccc2[nH]c3c(c2c1)CCc1cc(C(=O)O)c(O)cc1-3
0.076	111	–	–	–	CCCCc1ccc(-c2ccc3c4c([nH]c3c2)-c2ccc(C(N)=O)cc2CC4)cc1
0.194	128	–	–	–	Cc1cccc(-c2ccc3c4c([nH]c3c2)-c2cc(O)c(C(=O)O)cc2CC4)c1
0.333	115	–	–	–	O=C(O)c1cc2c(cc1O)-c1[nH]c3ccc(C(F)(F)F)cc3c1CC2
> 30	–	–	–	–	COc1cc2c(ccc3c4ccccc4[nH]c23)cc1C(=O)O
0.067	128	10	2	4.1	Cc1cc(C)cc(-c2ccc3c4c([nH]c3c2)-c2cc(O)c(C(=O)O)cc2CC4)c1
0.569	68	–	–	–	O=C(O)c1cc2c(cc1O)-c1[nH]c3ccc(-c4ccccc4)cc3c1CC2
0.148	127	–	–	–	O=C(O)c1cc2c(cc1O)-c1[nH]c3cc(-c4cccc(C(F)(F)F)c4)ccc3c1CC2
0.373	136	–	–	–	O=C(O)c1cc2c(cc1O)-c1[nH]c3cc(-c4ccccc4)ccc3c1CC2
3.4	100	–	–	–	O=C(O)c1cc2ccc3c4ccccc4[nH]c3c2cc1O
0.473	96	–	–	–	O=C(O)c1cc2c(cc1O)-c1[nH]c3cc(C(F)(F)F)ccc3c1CC2

EC50 [1] [µM]	Efficacy [2] [%]	bioavailability [3] [%]	Cmax [4] [µM]	half-life [5] [h]	Structure (SMILES)
–	141	–	–	–	CCCCc1ccc(-c2ccc3c4c([nH]c3c2)-c2ccc(C(=O)O)cc2CC4)cc1
0.143	128	–	–	–	O=C(O)c1cc2ccc3c4ccc(C(F)(F)F)cc4[nH]c3c2cc1O
0.035	126	–	–	–	Cc1cc(-c2ccc3c4c([nH]c3c2)-c2cc(O)c(C(=O)O)cc2CC4)ccc1F
9.2	70	–	–	–	Cc1ccc2c(c1)[nH]c1c3cc(O)c(CC(=O)O)cc3ccc21
> 30	–	–	–	–	Cc1cc(-c2ccc3c4c([nH]c3c2F)-c2ccc(C3=NCCN3)cc2CC4)ccc1F
> 30	–	–	–	–	Cn1c2ccccc2c2ccc3cc(C(=O)O)c(O)cc3c21
0.055	140	–	–	–	CCCCc1ccc(-c2ccc3c4c([nH]c3c2F)-c2ccc(C(=O)O)cc2CC4)cc1
0.065	127	–	–	–	Cc1ccc(-c2ccc3c4c([nH]c3c2)-c2cc(O)c(C(=O)O)cc2CC4)cc1C
0.127	132	–	–	–	CCCCc1ccc(-c2ccc3c4c([nH]c3c2)-c2ccc(C(=O)N(C)C)cc2CC4)cc1
0.026	143	–	–	–	CCCCc1ccc(-c2ccc3c4c([nH]c3c2)-c2cc(O)c(C(=O)O)cc2CC4)cc1
0.119	128	–	–	–	CCCCc1ccc(-c2ccc3c4c([nH]c3c2)-c2ccc(-c3nnn[nH]3)cc2CC4)cc1
7.79	74	–	–	–	O=C(O)c1ccc2c3c([nH]c2c1)-c1cc(O)c(C(=O)O)cc1CC3
> 30	–	–	–	–	O=C(O)c1cc2c(cc1O)-c1[nH]c3cccc(-c4ccccc4)c3c1CC2
0.043	147	–	–	–	CCCOc1cccc(-c2ccc3c4c([nH]c3c2)-c2cc(O)c(C(=O)O)cc2CC4)c1
0.284	136	–	–	–	CN(C)c1ccc(-c2ccc3c4c([nH]c3c2)-c2cc(O)c(C(=O)O)cc2CC4)cc1
7.83	37	–	–	–	O=C(O)c1cc2c(cc1O)-c1[nH]c3c(C(F)(F)F)cccc3c1CC2
0.799	101	–	–	–	O=C(O)c1cc2c(cc1O)-c1[nH]c3c(F)ccc(C(F)(F)F)c3c1CC2
0.87	76	–	–	–	Cc1ccc2c(c1)[nH]c1c3cc(O)c(C(=O)O)cc3ccc21
